Measurements from PubChem BioAssay (NCI).
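Grown in 96-well plates, cells were treated for 48 hours with each compound at five concentrations. Insufficient inhibition: endpoint recorded as highest concentration tested. GI50 = concentration required for 50% inhibition of growth. The concentration for full growth arrest is given as TGI.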

Assays:
Assay in all cases: NCI-60 cell line screen, 48 h
SR leukemia = tested on: SR leukemia
CAKI-1 renal = tested on: CAKI-1 renal
U251 CNS = tested on: U251 CNS
MDA-MB-468 breast = tested on: MDA-MB-468 breast
MALME-3M melanoma = tested on: MALME-3M melanoma
NCI-H522 lung = tested on: NCI-H522 lung
HL-60(TB) leukemia = tested on: HL-60(TB) leukemia
SNB-75 CNS = tested on: SNB-75 CNS
HCC-2998 colon = tested on: HCC-2998 colon
SK-OV-3 ovarian = tested on: SK-OV-3 ovarian
COLO 205 colon = tested on: COLO 205 colon
UO-31 renal = tested on: UO-31 renal
SK-MEL-5 melanoma = tested on: SK-MEL-5 melanoma
HCT-116 colon = tested on: HCT-116 colon
DU-145 prostate = tested on: DU-145 prostate
SF-268 CNS = tested on: SF-268 CNS
CCRF-CEM leukemia = tested on: CCRF-CEM leukemia
SK-MEL-2 melanoma = tested on: SK-MEL-2 melanoma
OVCAR-4 ovarian = tested on: OVCAR-4 ovarian
A549 NSCLC = tested on: A549 NSCLC
SW-620 colon = tested on: SW-620 colon
HT29 colon = tested on: HT29 colon
IGROV1 ovarian = tested on: IGROV1 ovarian
MCF7 breast = tested on: MCF7 breast
KM12 colon = tested on: KM12 colon
NCI/ADR-RES ovarian = tested on: NCI/ADR-RES ovarian
786-0 renal = tested on: 786-0 renal
M14 melanoma = tested on: M14 melanoma
HOP-62 NSCLC = tested on: HOP-62 NSCLC
SF-539 CNS = tested on: SF-539 CNS
HCT-15 colon = tested on: HCT-15 colon
HOP-92 NSCLC = tested on: HOP-92 NSCLC
ACHN renal = tested on: ACHN renal
NCI-H226 lung = tested on: NCI-H226 lung
OVCAR-3 ovarian = tested on: OVCAR-3 ovarian
RXF 393 renal = tested on: RXF 393 renal
PC-3 prostate = tested on: PC-3 prostate
UACC-62 melanoma = tested on: UACC-62 melanoma
NCI-H460 lung = tested on: NCI-H460 lung
EKVX NSCLC = tested on: EKVX NSCLC
NCI-H23 lung = tested on: NCI-H23 lung
UACC-257 melanoma = tested on: UACC-257 melanoma
RPMI-8226 leukemia = tested on: RPMI-8226 leukemia
SNB-19 CNS = tested on: SNB-19 CNS
MDA-MB-435 = tested on: MDA-MB-435
BT-549 breast = tested on: BT-549 breast
MDA-MB-231 breast = tested on: MDA-MB-231 breast
OVCAR-8 ovarian = tested on: OVCAR-8 ovarian
SK-MEL-28 melanoma = tested on: SK-MEL-28 melanoma
MOLT-4 leukemia = tested on: MOLT-4 leukemia
SN12C renal = tested on: SN12C renal
LOX IMVI melanoma = tested on: LOX IMVI melanoma
HS 578T breast = tested on: HS 578T breast
OVCAR-5 ovarian = tested on: OVCAR-5 ovarian
T-47D breast = tested on: T-47D breast
SF-295 CNS = tested on: SF-295 CNS
K-562 leukemia = tested on: K-562 leukemia
A498 renal = tested on: A498 renal
TK-10 renal = tested on: TK-10 renal

Q: How did the GI50 (SR leukemia) turn out when CC(=O)c1ccc(Nc2nc(SCCC(C)C)nc(-c3ccc(F)cc3)c2C#N)cc1 was run?
A: > 100 µM

Q: And the TGI (SR leukemia)?
A: > 100 µM

Q: And the GI50 (CAKI-1 renal)?
A: 3.75 µM

Q: And the TGI (CAKI-1 renal)?
A: 23.5 µM

Q: What about the GI50 (U251 CNS) of the same compound?
A: 2.63 µM

Q: What about the TGI (U251 CNS) of the same compound?
A: 7.87 µM

Q: And the GI50 (MDA-MB-468 breast)?
A: 10.2 µM

Q: And the TGI (MDA-MB-468 breast)?
A: 50.3 µM

Q: And the GI50 (MALME-3M melanoma)?
A: 32.6 µM

Q: What about the TGI (MALME-3M melanoma) of the same compound?
A: > 100 µM

Q: And the GI50 (NCI-H522 lung)?
A: 24 µM

Q: What about the TGI (NCI-H522 lung) of the same compound?
A: > 100 µM

Q: And the GI50 (HL-60(TB) leukemia)?
A: > 100 µM

Q: And the TGI (HL-60(TB) leukemia)?
A: > 100 µM

Q: What about the GI50 (SNB-75 CNS) of the same compound?
A: 2.06 µM

Q: And the TGI (SNB-75 CNS)?
A: 21.6 µM

Q: And the GI50 (HCC-2998 colon)?
A: 21 µM

Q: And the TGI (HCC-2998 colon)?
A: > 100 µM

Q: And the GI50 (SK-OV-3 ovarian)?
A: 9.37 µM

Q: What about the TGI (SK-OV-3 ovarian) of the same compound?
A: 26.2 µM

Q: And the GI50 (COLO 205 colon)?
A: 7.42 µM

Q: And the TGI (COLO 205 colon)?
A: > 100 µM

Q: And the GI50 (UO-31 renal)?
A: 5.01 µM

Q: And the TGI (UO-31 renal)?
A: 25.7 µM

Q: And the GI50 (SK-MEL-5 melanoma)?
A: 13.8 µM

Q: And the TGI (SK-MEL-5 melanoma)?
A: 53.4 µM

Q: And the GI50 (HCT-116 colon)?
A: 3.51 µM

Q: And the TGI (HCT-116 colon)?
A: 13.7 µM

Q: And the GI50 (DU-145 prostate)?
A: 10.7 µM

Q: What about the TGI (DU-145 prostate) of the same compound?
A: > 100 µM

Q: What about the GI50 (SF-268 CNS) of the same compound?
A: 4.85 µM

Q: What about the TGI (SF-268 CNS) of the same compound?
A: 97.4 µM

Q: What about the GI50 (CCRF-CEM leukemia) of the same compound?
A: > 100 µM

Q: And the TGI (CCRF-CEM leukemia)?
A: > 100 µM

Q: What about the GI50 (SK-MEL-2 melanoma) of the same compound?
A: > 100 µM

Q: What about the TGI (SK-MEL-2 melanoma) of the same compound?
A: > 100 µM

Q: What about the GI50 (OVCAR-4 ovarian) of the same compound?
A: 7.2 µM

Q: And the TGI (OVCAR-4 ovarian)?
A: 93.3 µM

Q: What about the GI50 (A549 NSCLC) of the same compound?
A: 3.85 µM

Q: What about the TGI (A549 NSCLC) of the same compound?
A: > 100 µM

Q: And the GI50 (SW-620 colon)?
A: 16.7 µM

Q: And the TGI (SW-620 colon)?
A: > 100 µM

Q: And the GI50 (HT29 colon)?
A: 5.53 µM

Q: And the TGI (HT29 colon)?
A: > 100 µM

Q: And the GI50 (IGROV1 ovarian)?
A: 10.6 µM

Q: What about the TGI (IGROV1 ovarian) of the same compound?
A: 37.9 µM

Q: And the GI50 (MCF7 breast)?
A: 7.51 µM

Q: What about the TGI (MCF7 breast) of the same compound?
A: > 100 µM

Q: And the GI50 (KM12 colon)?
A: 45.5 µM

Q: What about the TGI (KM12 colon) of the same compound?
A: > 100 µM

Q: And the GI50 (NCI/ADR-RES ovarian)?
A: 4.31 µM

Q: And the TGI (NCI/ADR-RES ovarian)?
A: 27.5 µM

Q: What about the GI50 (786-0 renal) of the same compound?
A: 3.09 µM

Q: And the TGI (786-0 renal)?
A: 8.47 µM

Q: And the GI50 (M14 melanoma)?
A: 24.2 µM

Q: What about the TGI (M14 melanoma) of the same compound?
A: > 100 µM

Q: What about the GI50 (HOP-62 NSCLC) of the same compound?
A: 3.99 µM

Q: What about the TGI (HOP-62 NSCLC) of the same compound?
A: 16.3 µM

Q: What about the GI50 (SF-539 CNS) of the same compound?
A: 3.69 µM

Q: What about the TGI (SF-539 CNS) of the same compound?
A: 16 µM

Q: What about the GI50 (HCT-15 colon) of the same compound?
A: 9.87 µM

Q: And the TGI (HCT-15 colon)?
A: > 100 µM

Q: And the GI50 (HOP-92 NSCLC)?
A: 2.95 µM

Q: What about the TGI (HOP-92 NSCLC) of the same compound?
A: 16.6 µM

Q: What about the GI50 (ACHN renal) of the same compound?
A: 2.07 µM

Q: And the TGI (ACHN renal)?
A: 4.56 µM

Q: What about the GI50 (NCI-H226 lung) of the same compound?
A: 3.82 µM

Q: What about the TGI (NCI-H226 lung) of the same compound?
A: 22.4 µM

Q: And the GI50 (OVCAR-3 ovarian)?
A: 13.3 µM

Q: And the TGI (OVCAR-3 ovarian)?
A: 72.8 µM

Q: What about the GI50 (RXF 393 renal) of the same compound?
A: 3.53 µM

Q: And the TGI (RXF 393 renal)?
A: 16.8 µM

Q: And the GI50 (PC-3 prostate)?
A: 24.7 µM

Q: And the TGI (PC-3 prostate)?
A: > 100 µM

Q: And the GI50 (UACC-62 melanoma)?
A: 30.2 µM

Q: And the TGI (UACC-62 melanoma)?
A: > 100 µM

Q: And the GI50 (NCI-H460 lung)?
A: 3.24 µM

Q: And the TGI (NCI-H460 lung)?
A: 12.5 µM

Q: And the GI50 (EKVX NSCLC)?
A: 3.05 µM

Q: And the TGI (EKVX NSCLC)?
A: 18.8 µM

Q: And the GI50 (NCI-H23 lung)?
A: 5.86 µM

Q: What about the TGI (NCI-H23 lung) of the same compound?
A: 39.6 µM

Q: And the GI50 (UACC-257 melanoma)?
A: > 100 µM

Q: What about the TGI (UACC-257 melanoma) of the same compound?
A: > 100 µM

Q: What about the GI50 (RPMI-8226 leukemia) of the same compound?
A: > 100 µM

Q: What about the TGI (RPMI-8226 leukemia) of the same compound?
A: > 100 µM

Q: And the GI50 (SNB-19 CNS)?
A: 3.7 µM

Q: And the TGI (SNB-19 CNS)?
A: 14.5 µM

Q: What about the GI50 (MDA-MB-435) of the same compound?
A: 12.9 µM

Q: What about the TGI (MDA-MB-435) of the same compound?
A: > 100 µM

Q: And the GI50 (BT-549 breast)?
A: 12.7 µM

Q: What about the TGI (BT-549 breast) of the same compound?
A: > 100 µM

Q: What about the GI50 (MDA-MB-231 breast) of the same compound?
A: 2.94 µM

Q: And the TGI (MDA-MB-231 breast)?
A: 10.2 µM

Q: What about the GI50 (OVCAR-8 ovarian) of the same compound?
A: 5.77 µM

Q: What about the TGI (OVCAR-8 ovarian) of the same compound?
A: 25.5 µM

Q: And the GI50 (SK-MEL-28 melanoma)?
A: 29.6 µM

Q: And the TGI (SK-MEL-28 melanoma)?
A: > 100 µM

Q: And the GI50 (MOLT-4 leukemia)?
A: > 100 µM

Q: And the TGI (MOLT-4 leukemia)?
A: > 100 µM

Q: And the GI50 (SN12C renal)?
A: 24 µM

Q: What about the TGI (SN12C renal) of the same compound?
A: > 100 µM

Q: What about the GI50 (LOX IMVI melanoma) of the same compound?
A: 4.41 µM

Q: What about the TGI (LOX IMVI melanoma) of the same compound?
A: 25.7 µM

Q: And the GI50 (HS 578T breast)?
A: 3.06 µM

Q: What about the TGI (HS 578T breast) of the same compound?
A: 10.1 µM

Q: What about the GI50 (OVCAR-5 ovarian) of the same compound?
A: > 100 µM

Q: What about the TGI (OVCAR-5 ovarian) of the same compound?
A: > 100 µM

Q: What about the GI50 (T-47D breast) of the same compound?
A: 4.19 µM

Q: And the TGI (T-47D breast)?
A: 74.5 µM

Q: And the GI50 (SF-295 CNS)?
A: 2.18 µM

Q: What about the TGI (SF-295 CNS) of the same compound?
A: 5.13 µM

Q: And the GI50 (K-562 leukemia)?
A: 32.2 µM

Q: And the TGI (K-562 leukemia)?
A: > 100 µM

Q: What about the GI50 (A498 renal) of the same compound?
A: 2.84 µM

Q: And the TGI (A498 renal)?
A: 8.8 µM

Q: What about the GI50 (TK-10 renal) of the same compound?
A: 3.78 µM

Q: What about the TGI (TK-10 renal) of the same compound?
A: 12.7 µM
